pKi: −log10 of the molar value. Values belong to the molecule of their own block, whether it stands above or below them.
How the values were obtained:
[1] = target: T1, Adenosine receptor A3 (Homo sapiens) (UniProt P0DMS8); assay: Selectivity interaction (CEREP panel (Eurofins, binding assay)) EUB0000544a ADORA3; details: at 10 µM
T1 sequence (whole entry): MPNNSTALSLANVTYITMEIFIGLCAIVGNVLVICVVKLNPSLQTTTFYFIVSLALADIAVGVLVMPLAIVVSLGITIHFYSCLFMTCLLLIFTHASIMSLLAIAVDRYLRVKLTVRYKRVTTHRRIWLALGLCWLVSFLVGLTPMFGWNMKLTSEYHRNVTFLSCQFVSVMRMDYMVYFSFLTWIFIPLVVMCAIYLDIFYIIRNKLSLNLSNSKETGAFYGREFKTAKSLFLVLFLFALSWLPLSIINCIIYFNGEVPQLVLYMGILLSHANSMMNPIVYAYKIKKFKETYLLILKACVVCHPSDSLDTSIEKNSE

[2] = target: T2, Alpha-2B adrenergic receptor (Homo sapiens) (UniProt P18089); assay: Selectivity interaction (CEREP panel (Eurofins, enzymes and uptake assays)) EUB0000544a ADRA2B; details: at 10 µM
T2 sequence (whole entry): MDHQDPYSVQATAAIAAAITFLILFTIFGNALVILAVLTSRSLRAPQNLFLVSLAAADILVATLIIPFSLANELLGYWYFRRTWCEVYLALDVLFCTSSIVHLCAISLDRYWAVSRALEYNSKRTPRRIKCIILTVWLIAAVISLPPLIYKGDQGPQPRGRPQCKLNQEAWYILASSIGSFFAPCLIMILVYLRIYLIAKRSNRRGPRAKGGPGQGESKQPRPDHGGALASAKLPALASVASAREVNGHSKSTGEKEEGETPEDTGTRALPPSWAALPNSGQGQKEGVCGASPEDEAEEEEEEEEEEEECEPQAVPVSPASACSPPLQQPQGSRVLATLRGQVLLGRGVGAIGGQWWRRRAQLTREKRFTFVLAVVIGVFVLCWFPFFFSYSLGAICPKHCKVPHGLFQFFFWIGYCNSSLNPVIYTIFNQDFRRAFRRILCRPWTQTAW

[3] = target: T3, Homeodomain-interacting protein kinase 4 (Homo sapiens) (UniProt Q8NE63); assay: Selectivity interaction (KinomeScan (DiscoverX)) EUB0000544a HIPK4; details: at 1 µM
T3 sequence (whole entry): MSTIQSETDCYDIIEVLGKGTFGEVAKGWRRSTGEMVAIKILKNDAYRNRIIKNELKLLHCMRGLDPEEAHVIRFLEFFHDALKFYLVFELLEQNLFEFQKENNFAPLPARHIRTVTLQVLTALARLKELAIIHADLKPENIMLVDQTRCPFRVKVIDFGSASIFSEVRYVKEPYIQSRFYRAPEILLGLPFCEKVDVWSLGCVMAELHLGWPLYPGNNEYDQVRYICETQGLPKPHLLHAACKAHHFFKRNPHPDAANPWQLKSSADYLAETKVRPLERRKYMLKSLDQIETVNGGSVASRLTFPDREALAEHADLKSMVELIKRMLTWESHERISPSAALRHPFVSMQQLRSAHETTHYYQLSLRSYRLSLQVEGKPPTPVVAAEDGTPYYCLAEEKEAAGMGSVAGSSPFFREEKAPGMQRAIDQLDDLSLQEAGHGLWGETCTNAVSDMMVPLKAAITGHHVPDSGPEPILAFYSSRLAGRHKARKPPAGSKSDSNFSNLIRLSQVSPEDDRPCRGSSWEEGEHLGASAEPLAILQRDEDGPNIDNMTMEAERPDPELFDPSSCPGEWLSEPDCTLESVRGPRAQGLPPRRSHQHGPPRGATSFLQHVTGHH

[4] = target: T4, Gamma-aminobutyric acid receptor subunit alpha-1 (Homo sapiens, UniProt P14867); assay: Selectivity interaction (GPCR panel (PDSP screen)) EUB0000544a GABRA1
T4 sequence (P14867 whole entry): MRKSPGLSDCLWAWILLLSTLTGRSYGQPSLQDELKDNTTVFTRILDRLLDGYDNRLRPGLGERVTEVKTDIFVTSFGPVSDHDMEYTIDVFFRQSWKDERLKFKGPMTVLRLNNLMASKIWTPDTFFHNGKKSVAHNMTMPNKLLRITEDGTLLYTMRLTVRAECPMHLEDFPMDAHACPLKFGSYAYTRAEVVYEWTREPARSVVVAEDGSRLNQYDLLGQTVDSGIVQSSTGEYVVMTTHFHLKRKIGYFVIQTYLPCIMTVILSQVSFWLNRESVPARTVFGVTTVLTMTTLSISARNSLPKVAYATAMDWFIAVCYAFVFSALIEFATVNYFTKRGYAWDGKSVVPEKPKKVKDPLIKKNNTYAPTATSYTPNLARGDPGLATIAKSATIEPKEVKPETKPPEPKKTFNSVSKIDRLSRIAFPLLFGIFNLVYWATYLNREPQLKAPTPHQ

[5] = target: T1, Adenosine receptor A3 (Homo sapiens); assay: Selectivity interaction (CEREP panel (Eurofins, enzymes and uptake assays)) EUB0000544a ADORA3; details: at 10 µM
[6] = target: Translocator protein (Homo sapiens) (UniProt P30536); assay: Selectivity interaction (CEREP panel (Eurofins, binding assay)) EUB0000544a TSPO; details: at 10 µM
Translocator protein (Homo sapiens), sequence (P30536 whole entry): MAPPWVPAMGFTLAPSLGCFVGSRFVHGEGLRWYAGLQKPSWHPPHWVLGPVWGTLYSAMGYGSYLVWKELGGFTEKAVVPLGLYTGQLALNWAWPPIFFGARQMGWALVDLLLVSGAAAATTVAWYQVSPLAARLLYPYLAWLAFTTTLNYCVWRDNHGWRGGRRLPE

[7] = target: T2, Alpha-2B adrenergic receptor (Homo sapiens); assay: Selectivity interaction (CEREP panel (Eurofins, binding assay)) EUB0000544a ADRA2B; details: at 10 µM
[8] = target: D(3) dopamine receptor (Homo sapiens, UniProt P35462); assay: Selectivity interaction (GPCR panel (PDSP screen)) EUB0000746a DRD3
D(3) dopamine receptor, sequence (P35462 whole entry): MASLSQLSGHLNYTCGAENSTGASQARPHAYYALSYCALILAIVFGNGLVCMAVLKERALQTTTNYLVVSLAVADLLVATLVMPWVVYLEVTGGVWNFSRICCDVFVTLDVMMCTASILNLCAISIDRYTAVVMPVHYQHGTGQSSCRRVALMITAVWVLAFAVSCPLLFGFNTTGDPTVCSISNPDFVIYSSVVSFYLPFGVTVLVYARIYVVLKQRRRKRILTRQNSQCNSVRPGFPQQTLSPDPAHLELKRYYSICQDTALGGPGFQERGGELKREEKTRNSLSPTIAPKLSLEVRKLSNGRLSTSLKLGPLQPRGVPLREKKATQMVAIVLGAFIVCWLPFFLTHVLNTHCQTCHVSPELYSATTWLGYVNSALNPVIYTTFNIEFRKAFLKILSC

[9] = target: T5, Mitogen-activated protein kinase 12 (Homo sapiens) (UniProt P53778); assay: Selectivity interaction (KinomeScan (DiscoverX)) EUB0000746a MAPK12; details: at 1 µM
T5 sequence (whole entry): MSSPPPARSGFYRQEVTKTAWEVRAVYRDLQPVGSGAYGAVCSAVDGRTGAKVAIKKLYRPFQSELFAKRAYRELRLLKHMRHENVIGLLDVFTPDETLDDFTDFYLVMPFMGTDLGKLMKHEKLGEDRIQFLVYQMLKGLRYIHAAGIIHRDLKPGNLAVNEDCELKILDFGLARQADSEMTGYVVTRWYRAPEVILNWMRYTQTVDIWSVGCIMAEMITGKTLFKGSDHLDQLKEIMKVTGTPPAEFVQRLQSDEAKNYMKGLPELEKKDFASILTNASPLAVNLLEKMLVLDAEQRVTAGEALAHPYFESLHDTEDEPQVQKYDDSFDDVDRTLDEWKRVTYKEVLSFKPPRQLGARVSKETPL

[10] = target: T6, Alpha-1D adrenergic receptor (Homo sapiens, UniProt P25100); assay: Selectivity interaction (GPCR panel (PDSP screen)) EUB0000746a ADRA1D
T6 sequence (P25100 whole entry): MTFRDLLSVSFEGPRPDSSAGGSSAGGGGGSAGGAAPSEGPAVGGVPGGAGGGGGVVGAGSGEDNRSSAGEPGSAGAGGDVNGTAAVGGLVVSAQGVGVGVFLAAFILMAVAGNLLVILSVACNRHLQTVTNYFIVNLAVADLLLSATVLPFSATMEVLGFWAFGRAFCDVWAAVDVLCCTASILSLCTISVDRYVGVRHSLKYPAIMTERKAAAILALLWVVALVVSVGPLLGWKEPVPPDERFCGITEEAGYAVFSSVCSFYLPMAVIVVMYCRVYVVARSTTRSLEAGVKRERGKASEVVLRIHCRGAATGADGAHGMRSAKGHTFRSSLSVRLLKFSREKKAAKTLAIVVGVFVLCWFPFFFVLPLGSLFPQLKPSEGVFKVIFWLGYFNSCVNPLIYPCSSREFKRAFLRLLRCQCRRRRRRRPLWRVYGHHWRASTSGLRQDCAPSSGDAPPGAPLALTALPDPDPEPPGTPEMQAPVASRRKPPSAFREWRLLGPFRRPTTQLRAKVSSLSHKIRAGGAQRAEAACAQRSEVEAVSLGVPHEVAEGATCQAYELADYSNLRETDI

[11] = target: Phosphatidylinositol 4,5-bisphosphate 3-kinase catalytic subunit alpha isoform (Homo sapiens, UniProt P42336); assay: Selectivity interaction (KinomeScan (DiscoverX)) EUB0000746a PIK3CA; details: at 1 µM
Phosphatidylinositol 4,5-bisphosphate 3-kinase catalytic subunit alpha isoform, sequence (P42336 whole entry, canonical isoform): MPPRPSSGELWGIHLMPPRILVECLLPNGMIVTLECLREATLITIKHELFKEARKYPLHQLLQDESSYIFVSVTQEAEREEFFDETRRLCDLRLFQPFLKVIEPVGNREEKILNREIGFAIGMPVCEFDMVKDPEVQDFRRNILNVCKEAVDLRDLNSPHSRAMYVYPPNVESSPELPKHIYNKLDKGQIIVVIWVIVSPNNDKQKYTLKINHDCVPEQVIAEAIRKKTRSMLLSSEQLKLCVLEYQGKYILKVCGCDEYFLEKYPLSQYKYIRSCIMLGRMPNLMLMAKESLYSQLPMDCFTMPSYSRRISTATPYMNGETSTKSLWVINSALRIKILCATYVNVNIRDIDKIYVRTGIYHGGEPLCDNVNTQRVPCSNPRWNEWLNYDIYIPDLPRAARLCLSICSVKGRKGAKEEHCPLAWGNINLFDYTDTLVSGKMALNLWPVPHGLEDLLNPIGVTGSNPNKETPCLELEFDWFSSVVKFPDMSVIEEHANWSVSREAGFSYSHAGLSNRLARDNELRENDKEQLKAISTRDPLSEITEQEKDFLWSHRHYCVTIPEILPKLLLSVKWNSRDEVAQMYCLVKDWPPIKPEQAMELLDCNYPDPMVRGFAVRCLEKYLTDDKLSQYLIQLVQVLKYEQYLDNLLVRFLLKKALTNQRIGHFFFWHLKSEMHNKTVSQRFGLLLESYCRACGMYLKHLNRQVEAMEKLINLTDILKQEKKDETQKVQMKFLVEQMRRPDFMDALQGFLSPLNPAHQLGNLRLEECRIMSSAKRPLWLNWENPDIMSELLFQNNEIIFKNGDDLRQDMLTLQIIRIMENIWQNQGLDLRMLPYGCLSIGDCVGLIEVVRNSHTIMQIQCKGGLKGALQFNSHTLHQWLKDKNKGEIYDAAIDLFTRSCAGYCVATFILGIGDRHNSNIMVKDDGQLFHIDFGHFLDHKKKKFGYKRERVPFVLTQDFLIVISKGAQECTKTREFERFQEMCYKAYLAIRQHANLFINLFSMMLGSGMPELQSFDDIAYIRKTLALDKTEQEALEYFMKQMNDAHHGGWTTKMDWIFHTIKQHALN

[12] = target: Calcium/calmodulin-dependent protein kinase type 1B (Homo sapiens, UniProt Q6P2M8); assay: Selectivity interaction (KinomeScan (DiscoverX)) EUB0000746a PNCK; details: at 1 µM
Calcium/calmodulin-dependent protein kinase type 1B, sequence (Q6P2M8 whole entry): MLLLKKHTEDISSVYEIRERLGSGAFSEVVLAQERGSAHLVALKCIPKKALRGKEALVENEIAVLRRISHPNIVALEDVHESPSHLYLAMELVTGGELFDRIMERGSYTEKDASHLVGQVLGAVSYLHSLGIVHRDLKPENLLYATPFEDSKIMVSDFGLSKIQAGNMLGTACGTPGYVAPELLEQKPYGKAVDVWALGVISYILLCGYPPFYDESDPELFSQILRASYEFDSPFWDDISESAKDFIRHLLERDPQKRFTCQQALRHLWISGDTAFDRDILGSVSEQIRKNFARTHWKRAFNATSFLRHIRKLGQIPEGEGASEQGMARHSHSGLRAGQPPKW

[13] = target: T7, Myosin-IIIb (Homo sapiens) (UniProt Q8WXR4); assay: Selectivity interaction (KinomeScan (DiscoverX)) EUB0000264b MYO3B; details: at 10 µM
T7 sequence (whole entry): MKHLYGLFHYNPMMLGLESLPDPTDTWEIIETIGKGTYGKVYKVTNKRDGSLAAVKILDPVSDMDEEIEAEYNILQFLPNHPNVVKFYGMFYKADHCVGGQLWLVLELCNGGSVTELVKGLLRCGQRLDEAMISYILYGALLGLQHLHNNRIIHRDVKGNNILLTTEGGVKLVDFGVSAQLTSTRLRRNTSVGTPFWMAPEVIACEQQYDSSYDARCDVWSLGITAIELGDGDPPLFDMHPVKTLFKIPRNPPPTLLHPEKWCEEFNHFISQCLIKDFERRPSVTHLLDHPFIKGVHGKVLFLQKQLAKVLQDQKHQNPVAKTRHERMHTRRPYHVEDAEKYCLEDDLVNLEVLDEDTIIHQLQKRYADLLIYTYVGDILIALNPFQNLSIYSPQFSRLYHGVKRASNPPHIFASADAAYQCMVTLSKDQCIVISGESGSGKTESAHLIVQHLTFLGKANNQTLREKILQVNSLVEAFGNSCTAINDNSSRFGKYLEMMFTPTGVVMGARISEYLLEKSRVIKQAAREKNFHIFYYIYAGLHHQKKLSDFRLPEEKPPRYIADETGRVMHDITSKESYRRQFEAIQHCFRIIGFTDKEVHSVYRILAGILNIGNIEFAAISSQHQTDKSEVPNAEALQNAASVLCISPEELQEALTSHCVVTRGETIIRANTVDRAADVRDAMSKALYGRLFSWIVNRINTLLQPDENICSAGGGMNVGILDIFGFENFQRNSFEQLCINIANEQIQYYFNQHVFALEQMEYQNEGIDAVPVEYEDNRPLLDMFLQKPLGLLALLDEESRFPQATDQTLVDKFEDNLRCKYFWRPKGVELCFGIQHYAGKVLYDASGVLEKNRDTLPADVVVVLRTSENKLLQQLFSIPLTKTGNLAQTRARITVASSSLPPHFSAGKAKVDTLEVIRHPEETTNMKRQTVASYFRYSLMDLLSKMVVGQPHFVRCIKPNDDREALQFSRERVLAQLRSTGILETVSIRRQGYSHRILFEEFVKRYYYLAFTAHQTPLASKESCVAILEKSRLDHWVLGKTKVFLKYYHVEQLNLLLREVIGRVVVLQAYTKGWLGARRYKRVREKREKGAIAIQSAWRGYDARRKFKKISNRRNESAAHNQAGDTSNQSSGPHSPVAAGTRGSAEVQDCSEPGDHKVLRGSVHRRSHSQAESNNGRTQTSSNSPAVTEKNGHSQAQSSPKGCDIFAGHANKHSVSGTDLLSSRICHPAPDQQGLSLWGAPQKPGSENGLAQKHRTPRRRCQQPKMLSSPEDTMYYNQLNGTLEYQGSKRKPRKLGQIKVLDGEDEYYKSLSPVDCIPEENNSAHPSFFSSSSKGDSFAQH

[14] = target: T4, Gamma-aminobutyric acid receptor subunit alpha-1; assay: Selectivity interaction (GPCR panel (PDSP screen)) EUB0000264b GABRA1
[15] = target: Serine/threonine-protein kinase PRP4 homolog (Homo sapiens) (UniProt Q13523); assay: Selectivity interaction (KinomeScan (DiscoverX)) EUB0000264b PRPF4B; details: at 10 µM
Serine/threonine-protein kinase PRP4 homolog (Homo sapiens), sequence (Q13523 whole entry): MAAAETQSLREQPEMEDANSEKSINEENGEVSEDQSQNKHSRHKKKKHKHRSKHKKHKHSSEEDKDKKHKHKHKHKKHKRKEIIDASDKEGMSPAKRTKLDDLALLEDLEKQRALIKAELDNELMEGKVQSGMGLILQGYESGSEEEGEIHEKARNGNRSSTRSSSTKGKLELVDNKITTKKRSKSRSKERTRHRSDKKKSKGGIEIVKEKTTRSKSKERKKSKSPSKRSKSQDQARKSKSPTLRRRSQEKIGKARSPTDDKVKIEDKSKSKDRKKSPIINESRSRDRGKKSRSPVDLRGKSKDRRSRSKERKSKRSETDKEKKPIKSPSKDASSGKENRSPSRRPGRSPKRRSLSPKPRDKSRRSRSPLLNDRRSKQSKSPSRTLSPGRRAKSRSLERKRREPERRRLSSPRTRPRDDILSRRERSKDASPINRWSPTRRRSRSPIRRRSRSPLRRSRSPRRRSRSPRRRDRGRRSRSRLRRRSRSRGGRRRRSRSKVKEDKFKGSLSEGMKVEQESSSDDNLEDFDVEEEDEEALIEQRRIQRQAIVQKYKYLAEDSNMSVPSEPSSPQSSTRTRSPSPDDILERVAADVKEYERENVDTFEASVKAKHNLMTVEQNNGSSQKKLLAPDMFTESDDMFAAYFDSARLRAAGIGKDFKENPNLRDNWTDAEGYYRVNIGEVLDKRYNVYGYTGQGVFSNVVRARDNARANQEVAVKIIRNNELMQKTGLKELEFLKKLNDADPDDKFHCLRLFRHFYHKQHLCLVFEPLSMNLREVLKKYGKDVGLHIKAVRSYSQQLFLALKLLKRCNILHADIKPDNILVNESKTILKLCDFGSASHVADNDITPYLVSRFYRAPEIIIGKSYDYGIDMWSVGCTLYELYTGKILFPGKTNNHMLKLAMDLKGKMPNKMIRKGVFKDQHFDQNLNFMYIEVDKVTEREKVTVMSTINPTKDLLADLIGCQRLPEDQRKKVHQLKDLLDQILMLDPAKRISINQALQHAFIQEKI

% of inhibition [1]: 63.9% | % of inhibition [2]: 63.5% | % of control [3]: 51% | pKi [4]: 7.71 | % of inhibition [5]: 63.9% | % of inhibition [6]: 95.5% | % of inhibition [7]: 63.5%
Compound: COc1ccc2c(c1)O[C@@H](c1ccc(OC)c(OC)c1)C[C@H]2NC(=O)C1(c2ccc3c(c2)OC(F)(F)O3)CC1 [A-1596586]

pKi [8]: < 5.00 | % of control [9]: 50% | pKi [10]: < 5.00 | % of control [11]: 50% | % of control [12]: 0%
Compound: O=C(NS(=O)(=O)c1ccc(NCC2CCOCC2)c([N+](=O)[O-])c1)c1ccc(N2CCN(Cc3ccc(C(F)(F)F)cc3-c3ccc(Cl)cc3)CC2)cc1Oc1cnc2[nH]ccc2c1 [A-1210227]

% of control [13]: 39% | pKi [14]: 6.66 | % of control [15]: 56%
Compound: COc1ccc2c(c1)O[C@H](c1ccc(OC)c(OC)c1)C[C@@H]2NC(=O)C1(c2ccc3c(c2)OC(F)(F)O3)CC1 [A-1596584]

Source: ChEMBL document CHEMBL5212743, “Selectivity Literature for EUbOPEN Chemogenomics Library wave 3” (2023)
